Measurements reported in patent US20190365666A1, “METHODS FOR PREVENTION AND TREATMENT OF CARDIOMETABOLIC SYNDROME AND COMPOSITIONS USED THEREIN” (OmniActive Health Technologies Limited, priority 2015, published 2019).

Legend:
[1] = test system: differentiated 3T3-L1 cells; test: Real time PCR gene expression (nutrigenomics) study in differentiated 3T3-L1 adipocytes; type: cell-based, murine; conditions: 12.5 ug/mL, versus DMSO
Protocol: 3T3L1 murine adipocytes model system was used to understand basic cellular mechanisms associated with diabetes, obesity and related disorders. Nutrigenomics study was carried out to evaluate effect of beta-cryptoxanthin on adipocyte cells, particularly differentiated 3T3-L1 cells, the study was based on real-time polymerase chain reaction (Real time PCR) with dose 12.5 ug/mL. The effect of beta-cryptoxanthin on Adipocyte differentiation and its activity for bio markers PPARG, SCD-1, acetyl Coa carboxylase (ACC), SREBP-1, C/EBPα and FAS were evaluated.
See FIG. 4, where each set of bar graphs for tests with BCX and without BCX (DMSO) correspond from the leftside bar respectively with the heading legend of the factors tested (i.e. for the bar results of BCX, 0.9 for ACC alpha, 0.39 for C/EPB alpha, 0.33 for FAS, 0.7 for PPAR gamma, and 0.38 for SCD-1).

[2] = Body weight, feed intake, visceral fat and liver weight in control and high fat diet rats; type: in vivo, Sprague Dawley rats; conditions: 2.5 mg/kg daily, 12 weeks
Protocol: (§1) Male Sprague Dawley rats (7 rats/group, age: 8 week, weight: 180±20 g) were housed in a controlled environment with a 12:12-h light-dark cycle at 22° C. and provided with rat chow and water ad libitum. All experiments were conducted under the National Institutes of Health's Guidelines for the Care and Use of Laboratory Animals and approved by the Ethics Committee of the Veterinary Control Institute. After acclimation for 2 weeks, the rats were divided into four groups: Rats were randomly divided into the following groups: (1) Control, (2) High Fat Diet (HFD) (42% of calories from fat), (3) control+beta-cryptoxanthin (2.5 mg/kg) 4) HFD (42% of calories from fat)+beta-cryptoxanthin (2.5 mg/kg) was administered daily as supplement for 12 weeks.
The experiment was performed using 28 male Sprague-Dawley rats (8 weeks old, weighing 180±20 g), purchased from the Inonu University Laboratory Animal Research Center (Malatya, Turkey). Rats were housed in cages in a temperature and humidity controlled environment, on a 12-hr light and 12-hr dark cycle, designed for the purpose of the study. The temperature inside the rat cages was 21±2° C., relative humidity was 55±5% and consecutive light-dark cycles lasted 12 hours. The protocol of the study was approved by the Animal Experimentation Ethics Committee of Inonu University (Malatya, Turkey). All procedures involving rats were conducted in strict compliance with relevant laws, the Animal Welfare Act, Public Health Services Policy, and guidelines established by the Institutional Animal Care and Use Committee of the Institute. Prior the starting the experiment, animals were assigned to either a regular diet (control; 12% of calories from fat) or a high-fat diet (HFD, 42% of calories from fat). Control or HFD composed according to the American Institute of Nutrition AIN-93 (Reeves et al., 1993) recommendations of casein (20%), soybean oil (7%), wheat starch (53.2%), sucrose (10%), potato starch (5%), 1-cysteine (0.3%), vitamin mix AIN-93M (1%) and mineral mix AIN-93M (3.5%). The high-fat diets (42% calories from fat) were obtained from the basal AIN-93 diet, by replacement of wheat starch with fat (tallow 15% and soybean oil 10%). For induction of obesity (insulin resistance), the rats were fed with HFD for 12 weeks
(§2) After a one week period of adaptation to laboratory conditions, the animals were randomly divided into four equal groups: 1) Control (n=7): untreated rats were allowed free access to a standard diet; 2) BCX Group, rats were fed a standard diet supplemented with beta-cryptoxanthin (n=7) 2.5 mg/kg; 3) HFD Group (high-fat diet; 42% of calories from fat; n=7): rats were fed a high-fat diet 4) HFD+BCX Group, rats were fed a high-fat diet (42% of calories from fat; n=7) supplemented with beta-cryptoxanthin 2.5 mg/kg. 5% suspension of beta-cryptoxanthin was dissolved in corn oil. At the end of the experiment, all rats were sacrificed by cervical dislocation. Blood samples were taken from rats in the morning upon overnight fasting for biochemical analyses and their visceral fat and liver samples were removed and weighed after sacrificing the animals.

[3] = Serum glucose, insulin, leptin, adiponectin and lipid profile in control and HFD rats; type: in vivo, Sprague Dawley rats; conditions: 2.5 mg/kg daily, 12 weeks
Protocol: as §1, §2
Blood was collected by cardiac puncture using an anticoagulant-free vacutainer tube, later centrifuged at 3,000×g for 10 min to obtain serum and kept frozen at −80° C. until it was assayed for biochemical parameters and malondialdehyde (MDA). Serum biochemical parameters were estimated using an automatic analyzer (Samsung LABGEO PT10, Samsung Electronics Co, Suwon, Korea). Repeatability and device/method precision of LABGEO^PT10 was established according to the IVR-PT06 guideline. Serum insulin, leptin and adiponectin levels were measured with the Rat Insulin Kit (Linco Research Inc, St. Charles, Mo., USA) by ELISA (Elx-800; Bio-Tek Instruments Inc, Vermont, USA).

[4] = Oxidative stress markers and antioxidant status (TBARS/MDA, TAC, SOD, CAT, GSHPx) in serum, retina and liver of control and HFD rats; type: in vivo, Sprague Dawley rats; conditions: 2.5 mg/kg daily, 12 weeks
Protocol: as §1, §2
The total antioxidant capacity (TAC) was measured using an antioxidant assay kit (Sigma, St Louis, Mo., USA). Trolox was used as an antioxidant standard to calculate Trolox equivalent antioxidant capacity; absorbance readings were taken at 520 nm. Lipid peroxidation was measured in terms of MDA formation, which is the major product of membrane lipid peroxidation done by a previously described method (Karatepe, 2004) with slight modification.
The liver MDA content was measured by high performance liquid chromatography (HPLC, Shimadzu, Tokyo, Japan) using a Shimadzu UV-vis SPD-10 AVP detector and a CTO-10 AS VP column in a mobile phase consisting of 30 mM KH2PO4 and methanol (82.5+17.5, v/v; pH 3.6) at a flow rate of 1.2 ml/min. Column effluents were monitored at 250 nm and the volume was 20 μl. The liver homogenate (10%, w/v) was prepared in 10 mM phosphate buffer (pH 7.4), centrifuged at 13,000×g for 10 min at 4° C., and the supernatant was collected and stored at −80° C. for MDA analysis (Karatepe, 2004). Activities of superoxide dismutase (SOD), catalase (CAT) and glutathione peroxidase (GPx) of homogenized liver were measured using a commercial kit (Cayman Chemical, Ann Arbor, Mich., USA) according to the manufacturer's instructions.

[5] = test system: VEGF, Nrf-2, NFkB, iNOS, ICAM-1, HO-1 in retina tissue; test: Western blot of retina tissue markers in HFD treated rats; type: in vivo, Sprague Dawley rats; conditions: FIG. 8
[6] = test system: BCO2, TNF-α, PPAR-γ, Nrf-2, NFkB, IRS-1, HO-1 in liver tissue; test: Western blot of liver tissue markers in HFD treated rats; type: in vivo, Sprague Dawley rats
Protocol: as §2
For Western blot analyses protein extraction was performed by homogenizing the liver in 1 ml ice-cold hypotonic buffer A, containing 10 mM2-[4-(2-Hydroxyethyl)-1-piperazinyl] ethanesulfonic acid [HEPES] (pH 7.8), 10 mMKCl, 2 mM MgCl2, 1 mM DTT, 0.1 mM EDTA, and 0.1 mM phenylmethylsulfonyl-fluoride (PMSF). The homogenates were added with 80 μl of 10% Nonidet P-40 (NP-40) solution and then centrifuged at 14,000×g for 2 min. The precipitates were washed once with 500 μl of buffer A plus 40 μl of 10% NP-40, centrifuged, re-suspended in 200 μl of buffer C [50 mM HEPES [pH 7.8], 50 mMKCl, 300 mM NaCl, 0.1 mM EDTA, 1 mM dihiothreitol [DTT], 0.1 mM PMSF, 20% glycerol], and recentrifugedat 14,800×g for 5 min. The supernatants were collected for determinations of NF-KB, VEGF, iNOS, ICAM, Nrf2, and HO-1 according to the method described by Sahin et al. [2012]. Equal amounts of protein (50 μg) were electrophoresed and subsequently transferred onto a nitrocellulose membrane (Schleicher and Schuell Inc., Keene, N.H., USA).
Antibodies against NF-κB, TNF-α, Nrf2, HO-1, PPAR-γ, and p-IRS1, (Abcam (Cambridge, UK) were diluted (1:1000) in the same buffer containing 0.05% Tween-20. Protein loading was controlled sing a monoclonal mouse antibody against β-actin (A5316; Sigma). Bands were analyzed densitometrically using an image analysis system (Image J; National Institute of Health, Bethesda, USA). (FIG. 12)

[7] = test system: BCO2, TNF-α, PPAR-γ, Nrf-2, NFkB, IRS-1, HO-1 in liver tissue; test: as above; type: in vivo, Sprague Dawley rats; conditions: P<0.001
[8] = HFD rats, listed as BC, 2.5 mg/kg
[9] = HFD rats, listed as Beta-cryptoxanthin, 2.5 mg/kg
[10] = HFD rats, Western blot, P<0.001

CC1=C(/C=C/C(C)=C/C=C/C(C)=C/C=C/C=C(C)/C=C/C=C(C)/C=C/C2=C(C)C[C@@H](O)CC2(C)C)C(C)(C)CCC1 [BCX, beta-cryptoxanthin]
ACC alpha expression (FIG. 4 bar result) [1]: 0.9 | PPAR gamma expression (FIG. 4 bar result) [1]: 0.7 | Feed intake ([2]; HFD rats): 16.87 g/day | Final BW ([2]; HFD rats, 2.5 mg/kg): decrease | Liver (weight) ([2]; HFD rats, 2.5 mg/kg): decreased | Visceral fat ([2]; HFD rats, 2.5 mg/kg): decreased | Final BW [2, 8]: 325.43 g | Liver (weight) [2, 8]: 18.46 g | Visceral fat [2, 8]: 14.93 g | Final BW [2, 9]: significantly reduced | Visceral fat [2, 9]: a tendency towards a decrease | Feed intake ([2]; normal diet rats): 23.88 g/day | Final BW ([2]; normal diet rats): 290.29 g | Liver (weight) ([2]; normal diet rats): 12.74 g | Visceral fat ([2]; normal diet rats): 7.75 g | Adiponectin ([3]; HFD rats, 2.5 mg/kg): decreased | Glucose ([3]; HFD rats, 2.5 mg/kg): significantly reduced | Insulin ([3]; HFD rats, 2.5 mg/kg): significantly reduced | Leptin ([3]; HFD rats, 2.5 mg/kg): significantly reduced | Adiponectin ([3]; normal diet rats): 10.8 µg/mL | FFA ([3]; normal diet rats): 1.12 mM | Glucose ([3]; normal diet rats): 78.29 mg/dL | HDL-C ([3]; normal diet rats): 17.00 mg/dL | Insulin ([3]; normal diet rats): 1.73 ng/mL | LDL-C ([3]; normal diet rats): 25.00 mg/dL | Leptin ([3]; normal diet rats): 30.43 ng/mL | T-C (total cholesterol) ([3]; normal diet rats): 48.6 mg/dL | TG ([3]; normal diet rats): 20.57 mg/dL | Liver CAT ([4]; HFD rats, 2.5 mg/kg): increased | Liver SOD ([4]; HFD rats, 2.5 mg/kg): increased | Liver TBARS ([4]; HFD rats, 2.5 mg/kg): decreased | Retinal TBARS ([4]; HFD rats, 2.5 mg/kg): reducing | Serum TAC ([4]; HFD rats, 2.5 mg/kg): increased | Serum TBARS ([4]; HFD rats, 2.5 mg/kg): reducing | Liver CAT [4, 8]: 271.57 U/mg protein | Liver GSHPx [4, 8]: 17.43 U/mg protein | Liver SOD [4, 8]: 130.43 U/mg protein | Liver TBARS [4, 8]: 2.98 nmol/mg protein | Serum TAC [4, 8]: 0.64 U/mL | Serum TBARS [4, 8]: 1.64 nmol/mL | Liver CAT [4, 9]: increased | Liver GSHPx [4, 9]: increased | Liver SOD [4, 9]: increased | Liver TBARS [4, 9]: decreased | Liver CAT ([4]; normal diet rats): 306.14 U/mg protein | Liver GSHPx ([4]; normal diet rats): 50.29 U/mg protein | Liver SOD ([4]; normal diet rats): 198.57 U/mg protein | Liver TBARS ([4]; normal diet rats): 1.56 nmol/mg protein | Serum TAC ([4]; normal diet rats): 1.19 U/mL | Serum TBARS ([4]; normal diet rats): 0.67 nmol/mL | iNOS in retina tissue (effect in words) [5]: decreased | BCO2 expression in liver tissue (effect in words) ([6]; FIG. 13): upregulate | Nrf2 expression in liver tissue (effect in words) ([6]; HFD rats, FIG. 16): decrease | NFkB in liver tissue (effect in words) ([6]; HFD rats, FIG. 17): decreased | HO-1 in liver tissue (effect in words) ([6]; HFD rats, FIG. 18): decreased | IRS-1 in liver (effect in words) ([6]; HFD rats, FIG. 19): increased | enhancement of liver HO-1 level [6, 10]: 1.41 fold | enhancement of liver p-IRS1 level [6, 10]: 1.33 fold | inhibition of liver NFkB expression [6, 10]: 22% | inhibition of liver TNF-α expression [6, 10]: 14% | PPAR gamma in liver tissue (effect in words) ([6]; HFD treated rats, FIG. 15): activated | enhancement of liver PPAR-α level [7]: 3.53 fold
